Measurements from publication PMC12472551, “Comprehensive Identification and Mechanistic Evaluation of Novel DHODH Inhibitors as Potent Broad-Spectrum Antiviral Agents” (Pharmaceuticals, 2025).
Where two headings read alike, the source gives them in different places.

How the values were obtained:
human lung organoids = conditions: viral replication in human lung organoids; cited from earlier work
[1] = tested on: influenza A virus (A/PR/8/34(H1N1)); assay: microbe, parasite or virus in culture; format: cell-based
[2] = MTT cytotoxicity assay in MDCK cells; format: cell-based, Canine; conditions: dog
Experimental: (§1) The cytotoxic effects of the test compounds on MDCK and Vero cell lines were evaluated utilizing the 3-(4,5-dimethylthiazol-2-yl)-2,5-diphenyltetrazolium bromide (MTT) assay. In brief, cells were seeded in 96-well plates and maintained in complete growth medium. After an overnight incubation period, this medium was aspirated and replaced with serum-free DMEM containing the compounds at predetermined concentrations. After 48 h of treatment, MTT dissolved in PBS was introduced into each well to achieve a final concentration of 0.5 mg/mL. Subsequent incubation at 37 °C for 2 h facilitated formazan crystal formation. The medium was then aspirated, and DMSO was added to solubilize the formazan crystals. Absorbance measurements at 540 nm were conducted using a CLARIOstar microplate reader.

[3] = MTT cytotoxicity assay in Vero cells; format: cell-based; conditions: African green monkey, Vero-ACE2-TMPRSS2 cells
Experimental: A Vero-ACE2-TMPRSS2 (labelled ‘Vero’ hereafter) cell line was used for SARS-CoV-2.
as §1

SARS-CoV-2 = assay: microbe, parasite or virus in culture; format: cell-based; conditions: Severe acute respiratory syndrome coronavirus 2
human DHODH = human DHODH (Homo sapiens, UniProt Q02127); assay: Surface plasmon resonance binding
Chain of human DHODH (Q02127 whole entry): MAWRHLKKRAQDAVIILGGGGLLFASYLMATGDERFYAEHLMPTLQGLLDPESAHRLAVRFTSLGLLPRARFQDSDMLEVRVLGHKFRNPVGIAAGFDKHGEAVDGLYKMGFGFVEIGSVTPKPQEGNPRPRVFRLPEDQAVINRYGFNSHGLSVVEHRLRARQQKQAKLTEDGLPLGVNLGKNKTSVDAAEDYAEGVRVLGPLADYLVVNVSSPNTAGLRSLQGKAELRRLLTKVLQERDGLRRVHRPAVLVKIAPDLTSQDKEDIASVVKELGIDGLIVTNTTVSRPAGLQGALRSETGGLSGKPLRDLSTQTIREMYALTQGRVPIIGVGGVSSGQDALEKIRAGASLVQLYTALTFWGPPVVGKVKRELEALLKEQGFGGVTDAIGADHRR

DHODH = conditions: cited from earlier work
DENV and ZIKV viruses = tested on: DENV and ZIKV viruses; parameters: method as in PMID 33716051; conditions: cited from earlier work
[4] = read-out: CC50 (hematological toxicity); cited from earlier work
[5] = Influenza A virus, MDCK, A/PR/8/34(H1N1), MDCK cells, plaque reduction, read-out: IC50
[6] = SARS-CoV-2, Vero-ACE2-TMPRSS2 cells, plaque assay, read-out: IC50

Row | SMILES | IC50 [1, 5] | CC50 at 48 h [2] | IC50 ([1]; Influenza A virus, MDCK) | CC50 at 48 h [3] | IC50 (SARS-CoV-2; [6]) | also measured
1 | CCn1c(CO)nn(-c2cc(O[C@@H](C)C(F)(F)F)c(C(=O)Nc3c(F)cccc3Cl)cc2F)c1=O [BAY 2402234] |  |  |  |  |  | EC50 (human lung organoids): 32 nM
2 | COC(=O)OCOc1c2n(ccc1=O)N([C@@H]1c3ccccc3SCc3c1ccc(F)c3F)[C@@H]1COCCN1C2=O [Baloxavir marboxil, reference compound] | 0.00967 ± 0.00112 µM |  |  |  |  | 
3 | CC1(c2ccccc2)CC(C)(C)N(C(=O)CSc2nc(O)cc(CSc3ccc(Cl)cc3)n2)c2ccccc21 (centres unmarked) [Compound 1] |  | 34.5 ± 1.58 µM | 36.8 ± 2.36 µM |  |  | 
4 | O=C(CCCCCn1c(=O)c2sccc2n(CC(=O)NCCC2=CCCCC2)c1=O)NCc1ccc(F)cc1 [Compound 2] |  | > 200 µM | > 200 µM |  |  | 
5 | COC(=O)c1ccc(NC(=O)CSc2nc(-c3sc(-c4ccccc4)nc3C)cc(=O)[nH]2)cc1 [Compound 3] |  | > 200 µM | > 200 µM |  |  | 
6 | CCCCc1nn2c(=O)cc(CSc3nc4ccc(NC(C)=O)cc4s3)nc2s1 [Compound 4] |  | > 200 µM | 66.2 ± 6.29 µM |  |  | 
7 | O=C(COc1ccccc1)Nc1ccc(N2CCN(c3ccccc3F)CC2)cc1C(=O)O [Compound 5] |  | > 200 µM | > 200 µM |  |  | 
8 | CC(=O)c1ccc(N2CCN(C(=O)c3cc4c(=O)n(C)c5ccccc5c4s3)CC2)cc1 [Compound 6] |  | > 200 µM | 4.85 ± 0.58 µM |  |  | 
9 | O=C(Cc1cccs1)Nc1ccc(N2CCN(c3ccccc3Cl)CC2)cc1C(=O)O [Compound 7] |  | > 200 µM | 17.2 ± 1.19 µM |  |  | 
10 | CN1C(=O)c2ccccc2Sc2cc(-c3noc(CNC(=O)Cc4ccc(Cl)cc4)n3)ccc21 [Compound 8] |  | > 200 µM | 13.4 ± 2.45 µM |  |  | 
11 | Cc1ccc(-c2onc3ccc(-c4cc(C(=O)O)c5ccccc5n4)cc23)cc1 [Compound 9] |  | > 200 µM | 7.35 ± 1.65 µM |  |  | 
12 | Cc1ccc(-c2onc3ccc(-c4cc(C(=O)O)c5cc(C)ccc5n4)cc23)cc1 [Compound 10] |  | > 200 µM | 1.75 ± 0.28 µM |  |  | 
13 | Cc1cc2nc(C)c(C(=O)O)n2cc1-c1ccc(-c2ccccc2)cc1 [Compound 11, 6-([1,1′-Biphenyl]-4-yl)-2,7-dimethylimidazo[1,2-a]pyridine-3-carboxylic acid] | 0.85 ± 0.05 µM | > 200 µM |  | > 200 µM | 3.6 ± 0.67 µM | kon (human DHODH; read-out: Ka, association constant): 4.83e+06 M⁻¹ s⁻¹; koff (human DHODH; read-out: Kdis, dissociation constant): 29.3 s⁻¹
14 | Cc1nc2ccc(-c3ccc(-c4ccccc4)cc3)cn2c1C(=O)O [Compound 12, 6-([1,1′-Biphenyl]-4-yl)-2-methylimidazo[1,2-a]pyridine-3-carboxylic acid] | > 100 µM | > 200 µM |  | > 200 µM | > 200 µM | IC50 ([1]; A/PR/8/34(H1N1), MDCK cells, plaque reduction, read-out: IC50): 100 ± 1.13 µM
15 | Cc1nc2ncc(-c3ccc(-c4ccccc4)cc3)cn2c1C(=O)O [Compound 13, 6-([1,1′-Biphenyl]-4-yl)-2-methylimidazo [1,2-a]pyrimidine-3-carboxylic acid] | 1.08 ± 0.26 µM | > 200 µM |  | > 200 µM | 105 ± 5.19 µM | 
16 | CCOC(=O)c1c(C)nc2ccc(-c3ccc(-c4ccccc4)cc3)cn12 [Compound 14, Ethyl 6-([1,1′-biphenyl]-4-yl)-2-methylimidazo[1,2-a]pyridine-3-carboxylate] | > 200 µM | > 200 µM |  | > 200 µM | > 200 µM | 
17 | CCOC(=O)c1c(C)nc2cc(C)c(-c3ccc(-c4ccccc4)cc3)cn12 [Compound 15, Ethyl 6-([1,1′-biphenyl]-4-yl)-2,7-dimethylimidazo[1,2-a]pyridine-3-carboxylate] | > 200 µM | > 200 µM |  | > 200 µM | > 200 µM | 
18 | CCOC(=O)c1c(C)nc2ncc(-c3ccc(-c4ccccc4)cc3)cn12 [Compound 16, Ethyl 6-([1,1′-biphenyl]-4-yl)-2-methylimidazo[1,2-a]pyrimidine-3-carboxylate] | > 200 µM | > 200 µM |  | > 200 µM | > 200 µM | 
19 | C/C(O)=C(\C#N)C(=O)Nc1ccc(C(F)(F)F)cc1 [Compound 17, teriflunomide, reference compound] | 35 ± 3.33 µM | 181 ± 16.4 µM |  | > 200 µM | 26.1 ± 4.32 µM | IC50 (DHODH; competing with ubiquinone, read-out: IC50 (DHODH inhibition)): […]
20 | Cc1c(-c2ccc(-c3ccccc3F)cc2)nc2ccc(F)cc2c1C(=O)O [Compound 18, brequinar] |  |  |  |  |  | EC50 (DENV and ZIKV viruses): 17 to 61 nM; CC50 [4]: > 5 µM; Ka, association constant (human DHODH; SPR): 1.31 × 10^6 M^−1S^−1
21 | CCC(CC)COC(=O)[C@H](C)N[P@](=O)(OC[C@H]1O[C@@](C#N)(c2ccc3c(N)ncnn23)[C@H](O)[C@@H]1O)Oc1ccccc1 [Remdesivir, reference compound] |  |  |  |  |  | IC50 (SARS-CoV-2): 4.95 ± 0.78 µM
22 | COc1cccc(-c2ccc(NC(=O)C3=C(C(=O)O)CCC3)c(F)c2)c1 [vidofludimus] |  |  |  |  |  | IC50 (DHODH; enhanced selectivity, read-out: IC50): 41 to 160 nM
